We go through 1 compound from patent publication US9072729B2, “Method for treating fibrosis and cancer with imidazolium and imidazolinium compounds” (Agency for Science, Technology and Research, priority 2008, dated 2015).

The assay relates to survivin in HLE cells. Description: Survivin translocation assay (HCS). It counts as cell-based, human. Conditions: 24 hr. On the procedure: FIG. 25. DBZIM induced nucleus to cytoplasm translocation of survivin protein. (A) Representative immunocytostaining images of HLE cells treated by DBZIM (0 and 1.0 mM) for 24 hr. Arrows indicate the accumulation and the disappearance of survivin in the nucleus of the control and the DBZIM-treated cells, respectively. The images were acquired and analyzed using ArrayScan VTI HCS reader (Thermal Scientific, PA, USA) and Target Activation BioApplication software. (B) Quantitation of translocation event. Cells were grown in 96-well plate and treated by DBZIM of various concentrations for 24 hr before fixation and immunocytostaining for survivin. Lower value in “Cytoplasmic-Nuclear Difference” indicated a lower amount of cytoplasmic survivin.
HLE cells cultured in 96-well plate were treated with DBZIM for 24 hr before staining and imaging. Cells were then fixed and stained with antibodies against […] and Survivin. (Lab Vision Corp. CA, USA) and buffer reagent from Hitkit (Thermo Scientific, IL, USA). The cells were imaged and analyzed on ArrayScan VTI HCS reader (Thermal Scientific, PA, USA). Fluorescence intensity in the cytoplasmic and nuclear area was plotted for indication of cytoplasm to nucleus translocation.

In the case of `[Br-].c1ccc(Cn2cc[n+](Cc3ccccc3)c2)cc1` [DBZIM, 1,3-bisbenzylimidazolium bromide], the survivin translocation entry is recorded as “translocated from the nucleus to the cytoplasm”.
